In general, IC50 refers to the concentration at which inhibition is half-maximal. A high value points to lower potency.

The target of one test is human TPH1 (Homo sapiens (Human), UniProt P17752). Briefly: Biochemical in vitro assay using fluorescence readout (TPH1 inhibition). The note with it: full length human TPH1, 40 μM L-tryptophan, 15° C., 60 minutes, fluorescence at 540 nm; mean if determined several times.
Chain of human TPH1 (P17752 whole entry): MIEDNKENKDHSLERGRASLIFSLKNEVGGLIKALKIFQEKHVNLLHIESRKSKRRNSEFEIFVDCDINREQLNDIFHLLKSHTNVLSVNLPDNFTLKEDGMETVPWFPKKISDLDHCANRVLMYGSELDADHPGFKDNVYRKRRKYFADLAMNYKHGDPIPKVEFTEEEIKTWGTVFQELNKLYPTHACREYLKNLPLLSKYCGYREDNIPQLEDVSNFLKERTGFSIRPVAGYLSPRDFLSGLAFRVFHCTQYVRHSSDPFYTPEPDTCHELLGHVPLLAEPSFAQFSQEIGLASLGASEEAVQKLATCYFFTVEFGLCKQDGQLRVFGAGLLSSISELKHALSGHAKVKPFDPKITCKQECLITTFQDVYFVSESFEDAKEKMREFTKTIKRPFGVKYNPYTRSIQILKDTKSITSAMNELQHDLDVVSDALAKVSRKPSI
Consider `Cc1nn2c3c(nc2s1)CCN(C(=O)COc1ccc(C(N)=O)cc1Cl)C3c1ccc(Cl)cc1F` (centres unmarked) [Example 1.4.26, 3-Chloro-4-(2-(5-(4-chloro-2-fluorophenyl)-2-methyl-7,8-dihydro-[1,3,4]thiadiazolo[2′,3′:2,3]imidazo[4,5-c]pyridin-6(5H)-yl)-2-oxoethoxy)benzamide], for which the IC50 came to 10 nM.
Still for that read-out and setting: the figure for `Cc1nn2c3c(nc2s1)CCN(C(=O)COc1ccc(N(C)C)nc1Cl)C3c1cnc(N(C)C)s1` (centres unmarked) [Example 1.22.2, 2-((2-Chloro-6-(dimethylamino)pyridin-3-yl)oxy)-1-(5-(2-(dimethylamino)thiazol-5-yl)-2-methyl-7,8-dihydro[1,3,4]thiadiazolo[2′,3′:2,3]imidazo[4,5-c]pyridin-6(5H)-yl)ethanone] is 25 nM.
In turn, `CNc1ccc(OCC(=O)N2CCc3nc4sc(C)nn4c3C2c2ccc(Cl)cc2F)c(Cl)n1` (centres unmarked) [Example 1.4.27, 1-(5-(4-Chloro-2-fluorophenyl)-2-methyl-7,8-dihydro-[1,3,4]thiadiazolo[2′,3′:2,3]imidazo[4,5-c]pyridin-6(5H)-yl)-2-((2-chloro-6-(methylamino)pyridin-3-yl)oxy)ethanone] returned an IC50 of 6 nM. Compared with the last molecule, the IC50 is about 4.2-fold lower.
Still for that read-out and setting: next, `Cc1nn2c3c(nc2s1)CCN(C(=O)COc1ccc(C(=O)NC2CC2)nc1Cl)C3c1ccc(OCCO)cc1F` (centres unmarked) [Example 1.84.1, 6-chloro-N-cyclopropyl-5-(2-(5-(2-fluoro-4-(2-hydroxyethoxy)phenyl)-2-methyl-7,8-dihydro-[1,3,4]thiadiazolo[2′,3′:2,3]imidazo[4,5-c]pyridin-6(5H)-yl)-2-oxoethoxy)picolinamide]: 14 nM.

The test is the same for the next values; noted with them: human TPH1, fluorescence readout.
`Cc1nn2c3c(nc2s1)CCN(C(=O)COc1ccc(NS(C)(=O)=O)nc1Cl)C3c1ncc(C2CC2)cc1F` (centres unmarked) [Example 1.14.13, N-(6-chloro-5-(2-(5-(5-cyclopropyl-3-fluoropyridin-2-yl)-2-methyl-7,8-dihydro-[1,3,4]thiadiazolo[2′,3′:2,3]imidazo[4,5-c]pyridin-6(5H)-yl)-2-oxoethoxy)pyridin-2-yl)methanesulfonamide] returned an IC50 of 7 nM. This lies in the single-digit nanomolar range.
Molecule `Cc1nn2c3c(nc2s1)CCN(C(=O)COc1ccc(S(N)(=O)=O)cc1C)C3c1ccc(C2CC2)cc1F` (centres unmarked) [Example 1.6.14, 4-(2-(5-(4-cyclopropyl-2-fluorophenyl)-2-methyl-7,8-dihydro-[1,3,4]thiadiazolo[2′,3′:2,3]imidazo[4,5-c]pyridin-6(5H)-yl)-2-oxoethoxy)-3-methylbenzenesulfonamide] yielded an IC50 of 45 nM. This IC50 is about 6.4-fold higher than that of the molecule before.
`Cc1nn2c3c(nc2s1)CCN(C(=O)COc1ccc(N2CCOCC2)cc1Cl)C3c1c(C)noc1C` (centres unmarked) [Example 1.5.1, 2-(2-chloro-4-morpholinophenoxy)-1-(5-(3,5-dimethylisoxazol-4-yl)-2-methyl-7,8-dihydro[1,3,4]thiadiazolo[2′,3′:2,3]imidazo[4,5-c]pyridin-6(5H)-yl)ethanone] registered an IC50 of 22 nM.
`CCc1nc(NS(C)(=O)=O)ccc1OCC(=O)N1CCc2nc3sc(CF)nn3c2C1c1sc(C)nc1C` (centres unmarked) [Example 7.4.2, N-(5-(2-(5-(2,4-dimethylthiazol-5-yl)-2-(fluoromethyl)-7,8-dihydro-[1,3,4]thiadiazolo[2′,3′:2,3]imidazo[4,5-c]pyridin-6(5H)-yl)-2-oxoethoxy)-6-ethylpyridin-2-yl)methanesulfonamide]: the IC50 stood at 7 nM.
The same measure, in the same setting: the figure for `CCc1ncccc1OCC(=O)N1CCc2nc3sccn3c2C1c1cnn(-c2ccccc2)c1` (centres unmarked) [Example 6.13.9, 2-((2-ethylpyridin-3-yl)oxy)-1-(5-(1-phenyl-1H-pyrazol-4-yl)-7,8-dihydrothiazolo[2′,3′:2,3]imidazo[4,5-c]pyridin-6(5H)-yl)ethanone] is 123 nM; for `Cc1nn2c3c(nc2s1)CCN(C(=O)COc1ccc(C#N)nc1Cl)C3c1sc(C(=O)N(C)C)cc1F` (centres unmarked) [Example 1.24.4, 5-(6-(2-((2-chloro-6-cyanopyridin-3-yl)oxy)acetyl)-2-methyl-5,6,7,8-tetrahydro-[1,3,4]thiadiazolo[2′,3′:2,3]imidazo[4,5-c]pyridin-5-yl)-4-fluoro-N,N-dimethylthiophene-2-carboxamide] it is 46 nM.
On the same count and under the same terms, the figure for `Cc1ccc([C@H]2c3c(nc4sc(C)nn34)CCN2C(=O)COc2ccc(NS(C)(=O)=O)nc2Cl)c(F)c1` [Example 1.53.4] is 8 nM; for `Cc1nn2c3c(nc2s1)CCN(C(=O)COc1ccc(N2CCOCC2)nc1Cl)C3c1sc(C(=O)N(C)C)cc1F` (centres unmarked) [Example 1.24.1, 5-(6-(2-((2-chloro-6-morpholinopyridin-3-yl)oxy)acetyl)-2-methyl-5,6,7,8-tetrahydro-[1,3,4]thiadiazolo[2′,3′:2,3]imidazo[4,5-c]pyridin-5-yl)-4-fluoro-N,N-dimethylthiophene-2-carboxamide] it is 2 nM; for `Cc1nn2c3c(nc2s1)CCN(C(=O)COc1ccc(C(=O)N(C)C)nc1Cl)C3c1ccc(F)cc1F` (centres unmarked) [Example 1.55.1, 6-chloro-5-(2-(5-(2,4-difluorophenyl)-2-methyl-7,8-dihydro-[1,3,4]thiadiazolo[2′,3′:2,3]imidazo[4,5-c]pyridin-6(5H)-yl)-2-oxoethoxy)-N,N-dimethylpicolinamide] it is 19 nM.
Same read-out and setting: next, `O=C(COc1ccc2ccncc2c1)N1CCc2nc3sccn3c2C1c1nc2ccccc2s1` (centres unmarked) [Example 6.12.9, 1-(5-(benzo[d]thiazol-2-yl)-7,8-dihydrothiazolo-[2′,3′:2,3]imidazo[4,5-c]pyridin-6(5H)-yl)-2-(isoquinolin-7-yloxy)ethanone]: 12 nM; `Cc1nn2c3c(nc2s1)CCN(C(=O)COc1ccc(C(F)(F)F)nc1Cl)C3c1ncc(C2CC2)cc1F` (centres unmarked) [Example 1.14.3, 2-((2-chloro-6-(trifluoromethyl)pyridin-3-yl)oxy)-1-(5-(5-cyclopropyl-3-fluoropyridin-2-yl)-2-methyl-7,8-dihydro-[1,3,4]thiadiazolo[2′,3′:2,3]imidazo[4,5-c]pyridin-6(5H)-yl)ethanone]: 17 nM.
“2-(4-(aminomethyl)-2-chlorophenoxy)-1-(5-(3-fluorothiophen-2-yl)-2-methyl-7,8-dihydro-[1,3,4]thiadiazolo[2′,3′:2,3]imidazo[4,5-c]pyridin-6(5H)-yl)ethanone [Example 1.23.7]” came in with an IC50 of 38 nM.
`CNS(=O)(=O)Nc1ccc(OCC(=O)N2CCc3nc4sc(C)nn4c3C2c2ccc(Cl)cc2F)c(Cl)n1` (centres unmarked) [Example 1.4.52, N-(6-chloro-5-(2-(5-(4-chloro-2-fluorophenyl)-2-methyl-7,8-dihydro-[1,3,4]thiadiazolo[2′,3′:2,3]imidazo[4,5-c]pyridin-6(5H)-yl)-2-oxoethoxy)pyridin-2-yl)-N′-methyl-sulfamide] displayed an IC50 of 38 nM.
`CCc1ncccc1OCC(=O)N1CCc2nc3sccn3c2C1c1ccc(C)cc1F` (centres unmarked) [Example 6.10.2, 2-((2-ethylpyridin-3-yl)oxy)-1-(5-(2-fluoro-4-methyl-phenyl)-7,8-dihydrothiazolo[2′,3′:2,3]imidazo[4,5-c]-pyridin-6(5H)-yl)ethanone] yielded an IC50 of 7 nM.
On the same count and under the same terms, next, `CCc1ncccc1OCC(=O)N1CCc2nc3sccn3c2C1c1ccc(Cl)cc1F` (centres unmarked) [Example 6.4.7, 1-(5-(4-chloro-2-fluorophenyl)-7,8-dihydrothiazolo-[2′,3′:2,3]imidazo[4,5-c]pyridin-6(5H)-yl)-2-((2-ethylpyridin-3-yl)oxy)ethanone]: 6 nM; `O=C(COc1ccccc1C(F)(F)F)N1CCc2nc3sccn3c2C1c1cccnc1F` (centres unmarked) [Example 6.2.2, 1-(5-(2-fluoropyridin-3-yl)-7,8-dihydrothiazolo[2′,3′:2,3]-imidazo[4,5-c]pyridin-6(5H)-yl)-2-(2-(trifluoromethyl)-phenoxy)ethanone]: 81 nM; `CCc1nc(N2CCCS2(=O)=O)ccc1OCC(=O)N1CCc2nc3sc(C(F)F)nn3c2C1c1ccc(Cl)cc1F` (centres unmarked) [Example 8.1.3, 1-(5-(4-chloro-2-fluorophenyl)-2-(difluoromethyl)-7,8-dihydro-[1,3,4]thiadiazolo[2′,3′:2,3]imidazo[4,5-c]pyridin-6(5H)-yl)-2-((6-(1,1-dioxidoisothiazolidin-2-yl)-2-ethylpyridin-3-yl)oxy)ethanone]: 7 nM.
Molecule `Cc1nc(C)c(C2c3c(nc4sc(C)nn34)CCN2C(=O)COc2ccc(N(C)S(C)(=O)=O)nc2Cl)s1` (centres unmarked) [Example 1.68.6, N-(6-chloro-5-(2-(5-(2,4-dimethylthiazol-5-yl)-2-methyl-7,8-dihydro-[1,3,4]thiadiazolo[2′,3′:2,3]imidazo[4,5-c]-pyridin-6(5H)-yl)-2-oxoethoxy)pyridin-2-yl)-N-methylmethanesulfonamide] had an IC50 of 6 nM.
Same read-out and setting: next, `CCc1ncccc1OCC(=O)N1CCc2nc3sc(C)nn3c2C1c1ccc(C2CC2)cc1F` (centres unmarked) [Example 1.6.9, 1-(5-(4-cyclopropyl-2-fluorophenyl)-2-methyl-7,8-dihydro-[1,3,4]thiadiazolo[2′,3′:2,3]imidazo[4,5-c]pyridin-6(5H)-yl)-2-((2-ethylpyridin-3-yl)oxy)ethanone]: 457 nM; `Cc1nn2c3c(nc2s1)CCN(C(=O)COc1ccc(C(F)(F)F)nc1)C3c1ccc(C2CC2)cc1F` (centres unmarked) [Example 1.6.4, 1-(5-(4-cyclopropyl-2-fluorophenyl)-2-methyl-7,8-dihydro-[1,3,4]thiadiazolo[2′,3′:2,3]imidazo[4,5-c]pyridin-6(5H)-yl)-2-((6-(trifluoromethyl)pyridin-3-yl)oxy)ethanone]: 68 nM.
As for `Cc1nn2c3c(nc2s1)CCN(C(=O)COc1ccc(C(F)(F)F)nc1Cl)C3c1scnc1C` (centres unmarked) [Example 1.32.4, 2-((2-chloro-6-(trifluoromethyl)pyridin-3-yl)oxy)-1-(2-methyl-5-(4-methylthiazol-5-yl)-7,8-dihydro-[1,3,4]thiadiazolo [2′,3′:2,3]imidazo[4,5-c]pyridin-6(5H)-yl)ethanone], the IC50 is 21 nM.
The same measure, in the same setting: next, `COCCOc1ccc(C2c3c(nc4sc(C)nn34)CCN2C(=O)COc2ccc(C(=O)NC3CC3)nc2Cl)c(F)c1` (centres unmarked) [Example 1.83.1, 6-chloro-N-cyclopropyl-5-(2-(5-(2-fluoro-4-(2-methoxyethoxy)phenyl)-2-methyl-7,8-dihydro-[1,3,4]thiadiazolo[2′,3′:2,3]imidazo[4,5-c]pyridin-6(5H)-yl)-2-oxoethoxy)picolinamide]: 24 nM.

The values are drawn from US9765092B2, “Tricyclic piperidine compounds” (ACTELION PHARMACEUTICALS LTD, priority 2013, dated 2017).
